From ChEMBL document CHEMBL6153114, “Property-Based Design of Xanthine Derivatives as Potent and Orally Available TRPC4/5 Inhibitors for Depression and Anxiety” (J Med Chem, 2025)

What was measured:
[1] = in vivo; conditions: ICR, mouse, plasma, po, 10 mg/kg
[2] = in vivo; conditions: ICR, mouse, plasma, po, 10 mg/kg; remark: listed apart in the source
[3] = in vitro; conditions: human, liver microsomes
[4] = in vitro; conditions: rat, liver microsomes
[5] = in vitro; conditions: mouse, liver microsomes

Row | half-life at 1 h, 1 µM [3] [min] | half-life at 1 h, 1 µM [4] [min] | half-life at 1 h, 1 µM [5] [min] | Structure (SMILES) | concentration at 1 h [1] [ng/mL] | concentration at 4 h [2] [ng/mL]
1 | 12 | 1 | 4 | Cn1c(=O)n(CCCO)c(=O)c2c1cc(C1CC1C1CCCC1)n2Cc1ccc(Cl)cc1 (stereo unspecified) | – | –
2 | 141 | 40 | 115 | Cn1c(=O)n(CCCO)c(=O)c2c1cc(/C=C/c1ccc(Cl)cc1)n2Cc1ccc(Cl)cc1 | – | –

Row | Structure (SMILES) | half-life at 1 h, 1 µM [3] [min] | half-life at 1 h, 1 µM [4] [min] | half-life at 1 h, 1 µM [5] [min] | concentration at 1 h [1] [ng/mL] | concentration at 4 h [2] [ng/mL]
3 | Cn1c(=O)n(CCCO)c(=O)c2c1nc(Oc1cccc(Cl)c1)n2Cc1ccc(Cl)cc1 | 117 | 4 | 12 | 802 | 398
